Experimental findings from PubChem BioAssay AID1259407 (Chemical Carcinogenesis Research Information System (CCRIS), 2018) are described below.

For this series, the system named is CCRIS mutagenicity, Ames/micronucleus/aberration tests. The series can be described thus: CCRIS mutagenicity studies.
Where [1] appears, read: Test System: AMES SALMONELLA TYPHIMURIUM, Strain/Indicator: TA98, Metabolic Activation: RAT, LIVER, S-9, AROCLOR 1254, Method: PREINCUBATION
Setting [2] is: Test System: AMES SALMONELLA TYPHIMURIUM, Strain/Indicator: TA100, Metabolic Activation: RAT, LIVER, S-9, AROCLOR 1254, Method: PREINCUBATION
Where [3] appears, read: Test System: AMES SALMONELLA TYPHIMURIUM, Strain/Indicator: TA98, Metabolic Activation: RAT, LIVER, S-9, AROCLOR 1254, Method: STANDARD PLATE.
The mark [4] stands for this setting: Test System: AMES SALMONELLA TYPHIMURIUM, Strain/Indicator: TA1535, Metabolic Activation: RAT, LIVER, S-9, AROCLOR 1254, Method: STANDARD PLATE.
The mark [5] stands for this setting: Test System: AMES SALMONELLA TYPHIMURIUM, Strain/Indicator: TA98, Metabolic Activation: NONE, Method: STANDARD PLATE.
Setting [6] is: Test System: AMES SALMONELLA TYPHIMURIUM, Strain/Indicator: TA100, Metabolic Activation: NONE, Method: STANDARD PLATE.
[7] abbreviates: Test System: AMES SALMONELLA TYPHIMURIUM, Strain/Indicator: TA100, Metabolic Activation: RAT, LIVER, S-9, AROCLOR 1254, Method: STANDARD PLATE.

Structures are written as SMILES. The source made the active and inactive calls. How the calls were made is not given here.

As for `CCOC(=O)NO`, the mutagenic call is “active; positive” (Test System: AMES SALMONELLA TYPHIMURIUM, Strain/Indicator: TA98, Metabolic Activation: RAT, LIVER, S-9, KC500 OR PHENOBARBITAL, Method: LIQUID SUSPENSION) and “active; positive” (Test System: E. COLI, Strain/Indicator: WP2 UVRA, Metabolic Activation: NONE, Method: FLUCTUATION TEST).
In the case of `C[C@@H]1O[C@@H](O[C@H]2C[C@@H](O)[C@]3(CO)[C@H]4[C@H](O)C[C@]5(C)[C@@H](C6=CC(=O)OC6)CC[C@]5(O)[C@@H]4CC[C@]3(O)C2)[C@H](O)[C@H](O)[C@H]1O`, the mutagenic call (Test System: MOUSE LYMPHOMA, Strain/Indicator: L5178Y (TK+/TK-), Metabolic Activation: NONE, Method: SUSPENSION/PLATE) was “active; positive”.
Turning to `CC(=O)C(C)O` (stereo not given), the mutagenic call reads like this: (Test System: AMES SALMONELLA TYPHIMURIUM, Strain/Indicator: TA98, Metabolic Activation: NONE, Method: PREINCUBATION) “inactive; negative”; under setting [1], “inactive; negative”; (Test System: AMES SALMONELLA TYPHIMURIUM, Strain/Indicator: TA100, Metabolic Activation: NONE, Method: PREINCUBATION) “inactive; negative”; under setting [2], “inactive; negative”; (Test System: AMES SALMONELLA TYPHIMURIUM, Strain/Indicator: TA102, Metabolic Activation: NONE, Method: PREINCUBATION) “inactive; negative”; (Test System: AMES SALMONELLA TYPHIMURIUM, Strain/Indicator: TA102, Metabolic Activation: RAT, LIVER, S-9, AROCLOR 1254, Method: PREINCUBATION) “inactive; negative”. Also, the mutagenic call is “inactive; negative” (Test System: AMES SALMONELLA TYPHIMURIUM, Strain/Indicator: TA1535, Metabolic Activation: NONE, Method: PREINCUBATION); “inactive; negative” (Test System: AMES SALMONELLA TYPHIMURIUM, Strain/Indicator: TA1537, Metabolic Activation: NONE, Method: PREINCUBATION); “inactive; negative” (Test System: AMES SALMONELLA TYPHIMURIUM, Strain/Indicator: TA1538, Metabolic Activation: NONE, Method: PREINCUBATION); “inactive; negative” (Test System: E. COLI, Strain/Indicator: WP2 UVRA, Metabolic Activation: NONE, Method: PREINCUBATION).
Regarding `OCc1c2ccccc2cc2ccccc12`, the mutagenic call was “active; positive (structural changes) (weak response). precipitation in the culture medi” (End Point: In vitro chromosomal aberrations, Test System: Chinese hamster lung (CHL/IU) cells, Metabolic Activation: Rat, Liver, S9, Phenobarbital and 5,6-benzoflavone); “active; positive” (Test System: AMES SALMONELLA TYPHIMURIUM, Strain/Indicator: TA98, Metabolic Activation: HUMAN, LIVER, CYTOSOL, PAPS, Method: PREINCUBATION); “inactive; negative” (Test System: Ames Salmonella typhimurium, Strain/Indicator: TA98, Metabolic Activation: None, Method: Preincubation); “inactive; negative” (Test System: Ames Salmonella typhimurium, Strain/Indicator: TA98, Metabolic Activation: Rat, Liver, S9, Sodium phenobarbital and 5,6-benzoflavone (10%), Method: Preincubation); “inactive; negative” (Test System: Ames Salmonella typhimurium, Strain/Indicator: TA98, Metabolic Activation: Rat, Liver, S9, Sodium phenobarbital and 5,6-benzoflavone (30%), Method: Preincubation); “inactive; negative” (Test System: Ames Salmonella typhimurium, Strain/Indicator: TA100, Metabolic Activation: None, Method: Preincubation). Moreover, the mutagenic call is “inactive; negative” (Test System: Ames Salmonella typhimurium, Strain/Indicator: TA100, Metabolic Activation: Rat, Liver, S9, Sodium phenobarbital and 5,6-benzoflavone (10%), Method: Preincubation); “active; positive” (Test System: Ames Salmonella typhimurium, Strain/Indicator: TA100, Metabolic Activation: Rat, Liver, S9, Sodium phenobarbital and 5,6-benzoflavone (30%), Method: Preincubation); “inactive; negative” (Test System: Ames Salmonella typhimurium, Strain/Indicator: TA1535, Metabolic Activation: None, Method: Preincubation); “inactive; negative” (Test System: Ames Salmonella typhimurium, Strain/Indicator: TA1535, Metabolic Activation: Rat, Liver, S9, Sodium phenobarbital and 5,6-benzoflavone (10%), Method: Preincubation); “inactive; negative” (Test System: Ames Salmonella typhimurium, Strain/Indicator: TA1535, Metabolic Activation: Rat, Liver, S9, Sodium phenobarbital and 5,6-benzoflavone (30%), Method: Preincubation); “inactive; negative” (Test System: Ames Salmonella typhimurium, Strain/Indicator: TA1537, Metabolic Activation: None, Method: Preincubation). In addition, the mutagenic call (Test System: Ames Salmonella typhimurium, Strain/Indicator: TA1537, Metabolic Activation: Rat, Liver, S9, Sodium phenobarbital and 5,6-benzoflavone (10%), Method: Preincubation) is “active; positive (weak)”; the mutagenic call (Test System: Ames Salmonella typhimurium, Strain/Indicator: TA1537, Metabolic Activation: Rat, Liver, S9, Sodium phenobarbital and 5,6-benzoflavone (30%), Method: Preincubation) is “inactive; negative”; the mutagenic call (Test System: E. coli, Strain/Indicator: WP2uvrA/pKM101, Metabolic Activation: Rat, Liver, S9, Sodium phenobarbital and 5,6-benzoflavone (30%), Method: Preincubation) is “inactive; negative”.
Turning to `CNC(=O)Oc1cc2ccccc2c2ccccc12`, the mutagenic call by setting is: under setting [3], “inactive; negative”; under setting [4], “active; positive”.
Take `CCOC(=O)c1[nH]c2ccccc2c1N=Cc1cc(OC)c(OC)c(OC)c1`: the mutagenic call by setting is: (Test System: AMES SALMONELLA TYPHIMURIUM, Strain/Indicator: TA97, Metabolic Activation: NONE, Method: STANDARD PLATE) “active; positive”; (Test System: AMES SALMONELLA TYPHIMURIUM, Strain/Indicator: TA97, Metabolic Activation: RAT, LIVER, S-9, AROCLOR 1254, Method: STANDARD PLATE) “inactive; negative”; under setting [5], “inactive; negative”; under setting [3], “inactive; negative”; under setting [6], “inactive; negative”; under setting [7], “inactive; negative”. Also, the mutagenic call (Test System: AMES SALMONELLA TYPHIMURIUM, Strain/Indicator: TA102, Metabolic Activation: NONE, Method: STANDARD PLATE) is “inactive; negative” and the mutagenic call (Test System: AMES SALMONELLA TYPHIMURIUM, Strain/Indicator: TA102, Metabolic Activation: RAT, LIVER, S-9, AROCLOR 1254, Method: STANDARD PLATE) was “inactive; negative”.
Turning to `O=NN(CC(=O)O)CC1(O)OCC(O)C(O)C1O` (stereo not given), the mutagenic call by setting is: under setting [5], “inactive; negative”; under setting [1], “inactive; negative”; under setting [3], “inactive; negative”; under setting [6], “inactive; negative”; under setting [2], “inactive; negative”; under setting [7], “inactive; negative”. The mutagenic call (Test System: AMES SALMONELLA TYPHIMURIUM, Strain/Indicator: TA1535, Metabolic Activation: NONE, Method: STANDARD PLATE) is “inactive; negative”; the mutagenic call under setting [4] is “inactive; negative”; the mutagenic call (Test System: AMES SALMONELLA TYPHIMURIUM, Strain/Indicator: TA1537, Metabolic Activation: NONE, Method: STANDARD PLATE) is “inactive; negative”; the mutagenic call (Test System: AMES SALMONELLA TYPHIMURIUM, Strain/Indicator: TA1537, Metabolic Activation: RAT, LIVER, S-9, AROCLOR 1254, Method: STANDARD PLATE) was “inactive; negative”; the mutagenic call (Test System: AMES SALMONELLA TYPHIMURIUM, Strain/Indicator: TA1538, Metabolic Activation: NONE, Method: STANDARD PLATE) is “inactive; negative”; the mutagenic call (Test System: AMES SALMONELLA TYPHIMURIUM, Strain/Indicator: TA1538, Metabolic Activation: RAT, LIVER, S-9, AROCLOR 1254, Method: STANDARD PLATE) was “inactive; negative”.
